Data taken from publication PMC6591010 (Molecular cell, 2019).

How the values were obtained:
Sc condensin holocomplex = Sc condensin holocomplex (Saccharomyces cerevisiae, UniProt P38989+Q12267); conditions: with or without DNA
Ct Smc4hd–Brn1C = Ct Smc4hd–Brn1C (Thermochaetoides thermophila, UniProt G0S2G2, DEL467-1366/Q421L); assay: biochemical
Chain of Ct Smc4hd–Brn1C (G0S2G2 264-466 Q421L): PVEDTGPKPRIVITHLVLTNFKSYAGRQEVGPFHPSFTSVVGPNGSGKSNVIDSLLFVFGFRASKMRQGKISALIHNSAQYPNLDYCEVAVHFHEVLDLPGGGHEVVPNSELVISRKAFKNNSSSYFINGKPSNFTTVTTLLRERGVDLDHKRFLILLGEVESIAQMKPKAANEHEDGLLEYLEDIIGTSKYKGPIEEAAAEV
Chain of Ct Smc4hd–Brn1C (G0S2G2 1367-1542, stated change not applied): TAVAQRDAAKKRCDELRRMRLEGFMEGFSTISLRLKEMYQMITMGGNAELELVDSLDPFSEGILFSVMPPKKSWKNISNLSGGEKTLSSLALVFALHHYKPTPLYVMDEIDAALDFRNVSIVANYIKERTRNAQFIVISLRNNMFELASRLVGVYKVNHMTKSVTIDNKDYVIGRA
Chain of Ct Smc4hd–Brn1C (G0SBJ6 765-898 partner): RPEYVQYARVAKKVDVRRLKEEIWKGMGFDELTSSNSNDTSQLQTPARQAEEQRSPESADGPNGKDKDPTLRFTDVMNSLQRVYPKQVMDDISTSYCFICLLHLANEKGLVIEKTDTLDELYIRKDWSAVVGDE

Kd (Ct Smc4hd–Brn1C): 18.4 µM
Structure (SMILES): Nc1ncnc2c1ncn2[C@@H]1O[C@H](COP(=O)(O)OP(=O)(O)OP(=O)(O)O)[C@@H](O)[C@H]1O [ATP]
ATP hydrolysis assay (Sc condensin holocomplex): basal and DNA-stimulated ATPase activities of condensin holocomplexes
